system: HCT116; assay: cells; design: 2-deoxyglucose uptake inhibition, semi-automated resazurin/diaphorase fluorescence read-out of 2DG6P; conditions: Homo sapiens, HCT-116, 0.5 h; 2DG uptake
Procedure: Resazurin-based 2DG uptake assay (semi-automated high throughput) All buffers, reagents and steps were identical with those described for the manual screening Washing and [compound left out] addition steps were done using an automated cell washer or a multidrop device, respectively. Screening was performed in a 384-well plates. 15,000 HCT116 cells/well seeded into 384-well black-walled, clear bottomed plates (CellBIND, Corning) and incubated overnight. Compounds were added at 30 µM (final concentration for screening or serial dilutions staring from 30 µM for IC50 determinations) from DMSO stocks using the acoustic nanoliter dispenser ECHO 520. Fluorescence intensity was read from the bottom with a SpectraMax Paradigm Multi-Mode Microplate Reader (Molecular devices) using SUPPORTING INFORMATION 259 control (which was set to 100 %) and cells without 2DG (set to 0 %) using Graph Pad Prism 5 or 6 software and IC50 values were determined using a four-parameter fit. The observed difference in the obtained IC50 values for Glupin in the automated screening vs. manually performed assay is most likely attributed to the minituarization that is required for high-troughput screening and usually requires different plate format (384 vs. 96-well plates) and different cell number. In this case, the automated assay was performed in 384-well plates (vs. 96-well plates for the manual assay) with 15,000 cells per well (vs. 40,000 cells per well in the 96-well plates). For kinetic measurements, 15,000 cells were seeded into black CellBIND 384-well plates (Corning) and allowed to attach overnight. Then, the plates were washed 3X with KRB buffer containing 0.1%BSA and treated with different concentrations of 2DG (0-60mM) and Glupin (0-1µM) for 30s to 30min. The uptake was determined using the resazurin/diaphorase system as described above. 2DG uptake was stopped by aspirating the 2DG solution followed by quick wash with ice-cold KRB buffer (0.1 % BSA). Km and Vmax were determined by fitting the data according to Michaelis-Menten using non-linear fitting. The glucose uptake assay monitored the inhibition of 2‐deoxyglucose (2DG) uptake as described by Yamamoto et al.25 Briefly, 2DG uptake is determined by quantification of the 2DG‐6‐phosphate (2DG6P) that accumulates inside the cells by using the diaphorase‐resazurin/‐resorufin system (see Figure S7 a).

IC50 [nM] | Compound
8600 ± 4000 | CCOC(=O)Cn1c2c(c3ccccc31)CC1CC2C(OC)CN1C(=O)c1ccc(C)o1 (racemic) [5at, (±)-Ethyl 2-(5-methoxy-3-(5-methylfuran-2-carbonyl)-1,2,3,4,5,6-hexahydro-7H-2,6-methanoazocino[5,4-b]indol-7-yl)acetate]
93 ± 35 | CCCOC(=O)Cn1c2c(c3ccccc31)CC1CC2C(OC)CN1C(=O)c1cccnc1SC (racemic) [5l, (±)-Propyl 2-(-5-methoxy-3-(2-(methylthio)nicotinoyl)-3,4,5,6-tetrahydro-1H-2,6-methanoazocino[5,4-b]indol-7(2H)-yl)acetate]
4220 ± 3460 | CCOC(=O)Cn1c2c(c3cc(OC)ccc31)CC1CC2C(OC)CN1C(=O)c1cccnc1SC (racemic) [5aa, (±)-Ethyl 2-(5,10-dimethoxy-3-(2-(methylthio)nicotinoyl)-1,2,3,4,5,6-hexahydro-7H-2,6-methanoazocino[5,4-b]indol-7-yl)acetate]
> 30000 | COC1CN(C(=O)c2cccnc2SC)C2Cc3c([nH]c4ccccc34)C1C2 (racemic) [5j, (±)-(5-methoxy-1,2,4,5,6,7-hexahydro-3H-2,6-methanoazocino[5,4-b]indol-3-yl)(2-(methylthio)pyridin-3-yl)methanone]
1400 ± 200 | CCOC(=O)Cn1c2c(c3ccccc31)CC1CC2C(OC)CN1C(=O)c1cccnc1N1CCOCC1 (racemic) [5al, (±)-Ethyl 2-(5-methoxy-3-(2-morpholinonicotinoyl)-1,2,3,4,5,6-hexahydro-7H-2,6-methanoazocino[5,4-b]indol-7-yl)acetate]
120 ± 20 | C=CCOC1CN(C(=O)c2cccnc2SC)C2Cc3c(n(CC(=O)OCC)c4ccccc34)C1C2 (racemic) [5z, (±)-Ethyl 2-(5-(allyloxy)-3-(2-(methylthio)nicotinoyl)-1,2,3,4,5,6-hexahydro-7H-2,6-methanoazocino[5,4-b]indol-7-yl)acetate]
140 ± 70 | CCOC(=O)Cn1c2c(c3ccccc31)CC1CC2C(OC)CN1C(=O)c1cccnc1Sc1ccccc1 (racemic) [5ah, (±)-Ethyl 2-(5-methoxy-3-(2-(phenylthio)nicotinoyl)-1,2,3,4,5,6-hexahydro-7H-2,6-methanoazocino[5,4-b]indol-7-yl)acetate]
100 ± 60 | CCOC(=O)Cn1c2c(c3cc(O)ccc31)CC1CC2C(OC)CN1C(=O)c1cccnc1SC (racemic) [5f, (±)-Ethyl 2-(-10-hydroxy-5-methoxy-3-(2-(methylthio)nicotinoyl)-1,2,3,4,5,6-hexahydro-7H-2,6-methanoazocino[5,4-b]indol-7-yl)acetate]
540 ± 160 | CCOC(=O)Cn1c2c(c3ccccc31)CC1CC2C(OC)CN1C(=O)c1cccnc1F (racemic) [5u, (±)-Ethyl 2-(3-(2-fluoronicotinoyl)-5-methoxy-1,2,3,4,5,6-hexahydro-7H-2,6-methanoazocino[5,4-b]indol-7-yl)acetate]
130 ± 50 | CCOC(=O)Cn1c2c(c3ccccc31)CC1CC2C(O)CN1C(=O)c1cccnc1SC (racemic) [5c, (±)-Ethyl 2-(5-hydroxy-3-(2-(methylthio)nicotinoyl)-1,2,3,4,5,6-hexahydro-7H-2,6-methanoazocino[5,4-b]indol-7-yl)acetate]
3400 ± 300 | CCOC(=O)Cn1c2c(c3ccccc31)CC1CC2C(OC)CN1C(=O)c1ccco1 (stereo not drawn) [5s]
> 30000 | CNC(=O)Cn1c2c(c3ccccc31)CC1CC2C(OC)CN1C(=O)N1CCOCC1 (stereo not drawn) [5ay]
6700 ± 2400 | COC1CN(C(=O)c2cccnc2SC)C2Cc3c(n(Cc4ccco4)c4ccccc34)C1C2 (racemic) [5o, (±)-(7-(furan-2-ylmethyl)-5-methoxy-5,6-dihydro-1H-2,6-methanoazocino[5,4-b]indol-3(2H,4H,7H)-yl)(2-(methylthio)pyridin-3-yl)methanone]
2300 ± 800 | CCOC(=O)Cn1c2c(c3ccccc31)CC1CC2C(OC)CN1C(=O)c1cccnc1 (racemic) [5t, (±)-Ethyl 2-(5-methoxy-3-nicotinoyl-3,4,5,6-tetrahydro-1H-2,6-methanoazocino[5,4-b]indol-7(2H)-yl)acetate]
1700 ± 700 | CCOC(=O)Cn1c2c(c3ccccc31)CC1CC2C(OC)CN1C(=O)c1cccnc1S(C)(=O)=O (racemic) [5ag, (±)-Ethyl 2-(5-methoxy-3-(2-(methylsulfonyl)nicotinoyl)-1,2,3,4,5,6-hexahydro-7H-2,6-methanoazocino[5,4-b]indol-7-yl)acetate]
220 ± 80 | COC1CN(C(=O)c2cccnc2SC)C2Cc3c(n(CC(=O)Oc4ccccc4)c4ccccc34)C1C2 (racemic) [5ae, (±)-phenyl 2-(5-methoxy-3-(2-(methylthio)nicotinoyl)-3,4,5,6-tetrahydro-1H-2,6-methanoazocino[5,4-b]indol-7(2H)-yl)acetate]
6700 ± 1600 | CCOC(=O)Cn1c2c(c3ccccc31)CC1CC2C(OC)CN1C(=O)c1c(C(F)(F)F)ccnc1SC (racemic) [5x, (±)-Ethyl 2-(5-methoxy-3-(2-(methylthio)-4-(trifluoromethyl)nicotinoyl)-1,2,3,4,5,6-hexahydro-7H-2,6-methanoazocino[5,4-b]indol-7-yl)acetate]
93 ± 41 | CCOC(=O)Cn1c2c(c3ccccc31)CC1CC2C(OC)CN1C(=O)c1cccnc1Cl (racemic) [5af, (±)-Ethyl 2-(3-(2-chloronicotinoyl)-5-methoxy-1,2,3,4,5,6-hexahydro-7H-2,6-methanoazocino[5,4-b]indol-7-yl)acetate]
16000 ± 1000 | CNC(=O)Cn1c2c(c3ccccc31)CC1CC2C(OC)CN1C(=O)Cc1cccs1 (stereo not drawn) [5au]
28000 ± 2000 | CCOC(=O)n1c2c(c3ccccc31)CC1CC2C(OC)CN1C(=O)c1cccnc1SC (racemic) [5p, (±)-ethyl 5-methoxy-3-(2-(methylthio)nicotinoyl)-3,4,5,6-tetrahydro-1H-2,6-methanoazocino[5,4-b]indole-7(2H)-carboxylate]
190 ± 60 | COC1CN(C(=O)c2cccnc2SC)C2Cc3c(n(CC(=O)OC(C)(C)C)c4ccccc34)C1C2 (racemic) [5k, (±)-tert-butyl 2-(5-methoxy-3-(2-(methylthio)nicotinoyl)-3,4,5,6-tetrahydro-1H-2,6-methanoazocino[5,4-b]indol-7(2H)-yl)acetate]
> 30000 | CCOC(=O)Cn1c2c(c3cc(C(=O)N4CCOCC4)ccc31)CC1CC2C(OC)CN1C(=O)c1cccnc1SC (racemic) [5ab, (±)-Ethyl 2-(5-methoxy-3-(2-(methylthio)nicotinoyl)-10-(morpholine-4-carbonyl)-1,2,3,4,5,6-hexahydro-7H-2,6-methanoazocino[5,4-b]indol-7-yl)acetate]
87 ± 15 | CCCOC1CN(C(=O)c2cccnc2SC)C2Cc3c(n(CC(=O)OCC)c4ccccc34)C1C2 (racemic) [5d, (±)-Ethyl 2-(3-(2-(methylthio)nicotinoyl)-5-propoxy-1,2,3,4,5,6-hexahydro-7H-2,6-methanoazocino[5,4-b]indol-7-yl)acetate]
220 ± 70 | CCOC(=O)Cn1c2c(c3ccccc31)CC1CC2C(OC)CN1C(=O)c1cccnc1OCC (racemic) [5ak, (±)-Ethyl 2-(3-(2-ethoxynicotinoyl)-5-methoxy-1,2,3,4,5,6-hexahydro-7H-2,6-methanoazocino[5,4-b]indol-7-yl)acetate]
8400 ± 3600 | CCOC(=O)CCn1c2c(c3ccccc31)CC1CC2C(OC)CN1C(=O)c1cccnc1SC (racemic) [5q, (±)-ethyl 3-(5-methoxy-3-(2-(methylthio)nicotinoyl)-3,4,5,6-tetrahydro-1H-2,6-methanoazocino[5,4-b]indol-7(2H)-yl)propanoate]
> 30000 | CCOC(=O)Cn1c2c(c3cc(C(=O)OCC)ccc31)CC1CC2C(OC)CN1C(=O)c1cccnc1SC (stereo not drawn) [5i, Ethyl 7-(2-ethoxy-2-oxoethyl)-5-methoxy-3-(2-(methylthio)nicotinoyl)-2,3,4,5,6,7-hexahydro-1H-2,6-methanoazocino[5,4-b]indole-10-carboxylate]
1450 ± 600 | CNC(=O)Cn1c2c(c3ccccc31)CC1CC2C(OC)CN1C(=O)c1cccnc1SC (stereo not drawn) [5m]
89 ± 32 | COC(=O)Cn1c2c(c3ccccc31)CC1CC2C(OC)CN1C(=O)c1cccnc1SC (racemic) [5ad, (±)-methyl 2-(5-methoxy-3-(2-(methylthio)nicotinoyl)-3,4,5,6-tetrahydro-1H-2,6-methanoazocino[5,4-b]indol-7(2H)-yl)acetate]
> 30000 | CNC(=O)Cn1c2c(c3ccccc31)CC1CC2C(OC)CN1C(=O)c1cnccn1 (stereo not drawn) [5av]
1400 ± 200 | CCOC(=O)Cn1c2c(c3cc(Cl)ccc31)CC1CC2C(OC)CN1C(=O)c1cccnc1SC (racemic) [5g, (±)-Ethyl 2-(10-chloro-5-methoxy-3-(2-(methylthio)nicotinoyl)-1,2,3,4,5,6-hexahydro-7H-2,6-methanoazocino[5,4-b]indol-7-yl)acetate]
